Measurements as given in patent US20230000869A1, “NOVEL ALK2 INHIBITORS AND METHODS FOR INHIBITING BMP SIGNALING” (The Brigham and Women's Hospital, Inc., priority 2017, published 2023).
Structures can show the parent of a compound that is named as a salt.

What was measured:
ALK2 = biological target: T1, ALK2 (Mus musculus, UniProt P37172); assay: Luciferase reporter gene assay for ALK2 activity (C2C12 BRE-Luc SMAD1/5/8 reporter, BMP6 agonist); assay type: cell-based; details: BMP6 50 ng/mL
T1 construct: endogenous in cells; host or cells: C2C12-BRE (BRE-Luc reporter line, G418 selection)
T1 sequence (P37172 21-509): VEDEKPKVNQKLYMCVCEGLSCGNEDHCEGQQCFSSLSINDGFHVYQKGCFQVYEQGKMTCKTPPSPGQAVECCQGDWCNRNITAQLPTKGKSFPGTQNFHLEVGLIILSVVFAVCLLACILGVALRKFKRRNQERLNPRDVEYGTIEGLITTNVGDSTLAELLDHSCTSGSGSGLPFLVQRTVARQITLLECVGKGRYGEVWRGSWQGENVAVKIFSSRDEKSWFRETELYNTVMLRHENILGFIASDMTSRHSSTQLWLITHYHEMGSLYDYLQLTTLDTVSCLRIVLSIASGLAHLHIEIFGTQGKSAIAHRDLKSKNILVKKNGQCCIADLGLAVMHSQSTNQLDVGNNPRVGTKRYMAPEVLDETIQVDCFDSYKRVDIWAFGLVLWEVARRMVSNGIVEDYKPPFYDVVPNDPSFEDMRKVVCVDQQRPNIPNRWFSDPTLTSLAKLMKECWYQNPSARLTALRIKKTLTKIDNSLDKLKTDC
Experimental: (§1) All cell lines were cultured in DMEM, supplemented with […] and 1% Pen/Strep. All media reagents were obtained from Gibco. BMP6, BMP9, and TGFβ were obtained from R&D Systems. C2C12-BRE and HEK293T-SBE were kept in selection with 400 ug/mL G418 from Invivogen.
(§2) In this reporter gene cell based ALK2 and TGFβ assay, the C2C12 cell line was employed for the measurement of ALK2 activity, using a BRE-Luc SMAD1/5/8 reporter and BMP6 as the agonist. The HEK293T cell line was employed to measure TGFβ activity, using a SBE-Luc SMAD2/3 reporter and TGFβ as the agonist. Luciferase reporter assays were read using Promega Steady-Glo Luciferase Assay System.
(§3) Cells were plated in 96 well white clear bottom assay plates at 10 k cells/well for C2C12-BRE, 15 k cells/well for HEK293-SBE in DMEM containing 2% FBS 1% P/S. Cells were given a minimum of 4 hours in incubator at 37° C./5% CO2 to adhere prior to further treatment. Compounds were diluted in DMSO to a 10-point dilution curve and added to the plate to reach the following final concentrations: 10000, 3000, 1000, 300, 100, and 30 nM in the HEK293-SBE assay and 1000, 300, 100, 30, 10, 3, 1, 0.3 nM in the C2C12-BRE assay. Negative and positive control wells received 2 μL DMSO as vehicle treatment. Plates were returned to incubator for 45 minutes and then BMP6 and TGFB were added to a final concentration of 50 ng/mL and 5 ng/mL, respectively. Plates were returned to the incubator and left overnight. After a minimum of 18 hours post BMP6/TGFβ addition, the plates were read using Promega Steady-Glo Luciferase Assay System. A 1:1 mixture of prepared steady-glo and phenol free DMEM was prepared, and 50 μL/well was added to the assay plates whose media had been flicked off. Plates were given 10 minutes post steady-glo addition before luminescence was read on a Spectramax M5e microplate reader. Negative control wells were averaged and subtracted from all other wells on the plate. Inhibition was calculated as the percent of signal loss compared to the averaged positive control wells.

TGFβ = assay: Luciferase reporter gene assay for TGFβ activity (HEK293T SBE-Luc SMAD2/3 reporter, TGFβ agonist); assay type: cell-based; details: TGFβ 5 ng/mL
Experimental: as §1, §2, §3

Structure (SMILES)	IC50 (ALK2)	IC50 (TGFβ; Homo sapiens, HEK-293T)	IC50 (TGFβ)
COc1ccc2nccc(-c3cnn4cc(N5CCC(N6CCN(C)CC6)CC5)cnc34)c2n1 [Compound 60, 2-methoxy-8-[6-[4-(4-methylpiperazin-1-yl)-1-piperidyl]pyrazolo[1,5-a]pyrimidin-3-yl]-1,5-naphthyridine]	0.042 µM	> 3 µM	–
COc1cc2c(-c3cnn4cc(N5CCC(N6CCN(C)CC6)C(C)C5)cnc34)ccnc2cc1F (stereo not shown) [Compound 61]	> 1 µM	> 3 µM	–
Cc1cc(-c2cnn3cc(N4CCC(N5CCCN(C)CC5)CC4)cnc23)c2ccccc2n1 [Compound 62]	0.09 µM	0.037 µM	–
CN1CCN(C2CCN(c3cnc4c(-c5cccc(S(C)(=O)=O)c5)cnn4c3)CC2)CC1 [Compound 63]	0.977 µM	6.83 µM	–
CN1CCN(C2CCN(c3cnc4c(-c5cccc(P(C)(C)=O)c5)cnn4c3)CC2)CC1 [Compound 64]	0.028 µM	> 3 µM	–
CC(=O)N1CCC(N2CCN(c3cnc4c(-c5ccnc6ccccc56)cnn4c3)CC2)CC1 [Compound 81]	> 3 µM	> 3 µM	–
Cc1ccc2nccc(-c3cnn4cc(N5CCC(N6CCN(C)CC6)CC5)cnc34)c2c1 [Compound 185]	0.022 µM	0.514 µM	–
COc1cc2c(-c3cnn4cc(N5CCC(N)CC5)cnc34)ccnc2cc1F [Compound 186]	0.057 µM	0.37 µM	–
Cc1cc(-c2cnn3cc(N4CCC(N)CC4)cnc23)c2ccccc2n1 [Compound 187]	0.037 µM	0.032 µM	–
COc1cc2c(-c3cnn4cc(N5CCC(N(C)C)CC5)cnc34)ccnc2cc1F [Compound 188]	0.05 µM	0.126 µM	–
Cc1cc(-c2cnn3cc(N4CCC(N(C)C)CC4)cnc23)c2ccccc2n1 [Compound 189]	0.137 µM	0.092 µM	–
COc1cc2c(-c3cnn4cc(N5CCC(N6CCC(N(C)C)C6)CC5)cnc34)ccnc2cc1F (stereo not shown) [Compound 190]	0.031 µM	0.128 µM	–
COc1cc2c(-c3cnn4cc(N5CCOCC5)cnc34)ccnc2cc1F [Compound 192]	0.089 µM	0.184 µM	–
COc1cc2c(-c3cnn4cc(N5CC(N6CCOCC6)C5)cnc34)ccnc2cc1F [Compound 193]	0.118 µM	0.449 µM	–
Cc1cc(-c2cnn3cc(N4CC(N5CCOCC5)C4)cnc23)c2ccccc2n1 [Compound 194]	0.221 µM	0.138 µM	–
COc1cc2c(-c3cnn4cc(N5CCN(C)CC5)cnc34)ccnc2cc1F [Compound 195]	0.298 µM	0.286 µM	–
Cc1cc(-c2cnn3cc(N4CCN(C)CC4)cnc23)c2ccccc2n1 [Compound 196]	0.935 µM	0.126 µM	–
Cc1cc(-c2cnn3cc(N4CCOCC4)cnc23)c2ccccc2n1 [Compound 197]	0.395 µM	0.623 µM	–
Cc1cc(-c2cnn3cc(N4CCN(CC(C)(C)O)CC4)cnc23)c2ccccc2n1 [Compound 198]	0.3 µM	0.283 µM	–
COc1cc2c(-c3cnn4cc(N5CCN(C6CN(C)C6)CC5)cnc34)ccnc2cc1F [Compound 199]	0.023 µM	0.498 µM	–
COc1cc2c(-c3cnn4cc(N5CCN(CC(C)(C)O)CC5)cnc34)ccnc2cc1F [Compound 200]	0.094 µM	0.324 µM	–

Structure (SMILES)	IC50 (ALK2)	IC50 (TGFβ; Homo sapiens, HEK-293T)	IC50 (TGFβ)
COc1cc2c(-c3cnn4cc(N5CC(CC#N)(N6CCN(C)CC6)C5)cnc34)ccnc2cc1F [Compound 201]	0.013 µM	0.327 µM	–
COc1cc2c(-c3cnn4cc(N5CCN(c6ccncc6)CC5)cnc34)ccnc2cc1F [Compound 202]	0.507 µM	0.359 µM	–
COc1cc2c(-c3cnn4cc(N5CCN(c6ccnc(C)n6)CC5)cnc34)ccnc2cc1F [Compound 203]	0.026 µM	> 3 µM	–
COc1cc2c(-c3cnn4cc(N5CCN(c6nnc(C)s6)CC5)cnc34)ccnc2cc1F [Compound 204]	0.011 µM	> 3 µM	–
CN1CCN(C2CCN(c3cnc4c(-c5ccnc6cccnc56)cnn4c3)CC2)CC1 [Compound 205]	0.593 µM	> 3 µM	–
COc1cc2c(-c3cnn4cc(N5CCC(N6CCN(C)CC(F)(F)C6)CC5)cnc34)ccnc2cc1F [Compound 206]	0.356 µM	0.817 µM	–
Cc1cc(-c2cnn3cc(N4CCC(N5CCN(C)CC(F)(F)C5)CC4)cnc23)c2ccccc2n1 [Compound 207]	0.331 µM	0.215 µM	–
COc1ccc2nccc(-c3cnn4cc(N5CCC(N6CCCN(C)CC6)CC5)cnc34)c2c1 [Compound 208]	0.104 µM	0.685 µM	–
COc1cc2c(-c3cnn4cc(N5CC(c6ccncc6)C5)cnc34)ccnc2cc1F [Compound 209]	0.015 µM	0.062 µM	–
Cc1cc(-c2cnn3cc(N4CC(c5ccncc5)C4)cnc23)c2ccccc2n1 [Compound 210]	0.017 µM	0.091 µM	–
COc1cc2c(-c3cnn4cc(N5CCC(C(C)(C)N)CC5)cnc34)ccnc2cc1F [Compound 211]	0.051 µM	0.416 µM	–
CS(=O)(=O)c1cccc(-c2cnn3cc(N4CCNCC4)cnc23)c1 [Compound 212]	0.038 µM	0.76 µM	–
CS(=O)(=O)c1cccc(-c2cnn3cc(N4CCN(C5CCNCC5)CC4)cnc23)c1 [Compound 213, 3-(3-(methylsulfonyl)phenyl)-6-(4-(piperidin-4-yl)piperazin-1-yl)pyrazolo[1,5-a]pyrimidine trihydrochloride]	< 0.001 µM	< 0.001 µM	–
COc1cc2c(-c3c(N)nn4cc(N5CCC(N6CCN(C)CC6)CC5)cnc34)ccnc2cc1F [Compound 214, 3-(7-fluoro-6-methoxy-4-quinolyl)-6-[4-(4-methylpiperazin-1-yl)-1-piperidyl]pyrazolo[1,5-a]pyrimidin-2-amine]	> 1 µM	> 1 µM	–
COc1cc2c(-c3cnn4cc(N5CCC(N6C[C@@H]7C[C@H]6CN7C)CC5)cnc34)ccnc2cc1F [Compound 215]	0.034 µM	0.142 µM	–
COc1cc2c(-c3cnn4cc(N5CCC6(CC5)CN(C)C6)cnc34)ccnc2cc1F [Compound 216]	0.024 µM	–	0.044 µM
COc1cc2c(-c3cnn4cc(N5CCC6(CCN(C)CC6)CC5)cnc34)ccnc2cc1F [Compound 217]	0.033 µM	0.116 µM	–
COc1cc2c(-c3cnn4cc(N5C[C@H]6CN(C)C[C@H]6C5)cnc34)ccnc2cc1F [Compound 218]	0.026 µM	0.141 µM	–
CN1CCN(C2CCN(c3cnc4c(-c5ccnc(N6CCOCC6)c5)cnn4c3)CC2)CC1 [Compound 219]	0.381 µM	> 3 µM	–
COc1cc2c(-c3cnn4cc(N5CCC(N6CCN(C)CC6)CC5)cnc34)cc(=O)[nH]c2cc1F [Compound 220]	> 1 µM	> 1 µM	–
